This is an account of results in ChEMBL document CHEMBL1201862, “PubChem BioAssay data set” (2004).

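Dose response: 5 concentrations. Exposure: 48 h. Format: 96-well plates. Endpoint: linear interpolation; highest concentration if not reached. GI50: concentration for 50% inhibition of growth.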 Active and inactive are the calls of the source. Rule as the data show it: active = GI50 up to about 1.1 µM and inactive = higher.

Common to all, as to assay: NCI anticancer screen, dose series, 48 h
Assay [1] deals with 786-0.
Assay [2] concerns A498.
Assay [3] deals with ACHN.
The test system of assay [4] is BT-549.
For assay [5], the system named is CAKI-1.
Assay [6] concerns EKVX.
The subject of assay [7] is HCC 2998.
In assay [8] the test system is HCT-15.
The subject of assay [9] is MDA-MB-435.
Assay [10] deals with NCI-H226.
Assay [11] has as its system NCI-H23.
Assay [12] deals with OVCAR-3.
For assay [13], the system named is SF-268.
Assay [14] deals with SK-MEL-2.
The subject of assay [15] is SK-OV-3.
The test system of assay [16] is SNB-19.
The subject of assay [17] is SNB-75.
In assay [18] the test system is UACC-257.
For assay [19], the system named is KM12.
For assay [20], the system named is M14.

Consider `COC(=O)Cc1c([C@@H]2Nc3ccccc3[C@H]2CC(=O)OC)[nH]c2ccccc12`, for which the GI50 in assay [1] was 58.2 µM (inactive); in assay [2] it was 34.7 µM (inactive); in [3], 36.6 µM (inactive); in assay [4], 18.5 µM (inactive); in assay [5] it was 47.2 µM (inactive); in assay [6], 43 µM (inactive). Moreover, the GI50 was 45.1 µM (inactive) in assay [7]; 5.02 µM in assay [8]; 26.1 µM (inactive) in [9]; 71.8 µM (inactive) in [10]; 27 µM (inactive) in [11]; 18.3 µM (inactive) in [12]. For the same molecule, the GI50 was 31.1 µM (inactive) in assay [13]; 17.7 µM (inactive) in assay [14]; 52.4 µM (inactive) in assay [15]; 55.6 µM (inactive) in [16]; 36.9 µM (inactive) in [17]; 24.9 µM (inactive) in assay [18].
As to `NC(=O)NNCc1ccccc1`, the GI50 in assay [1], in [2], in assay [3], in assay [4], in assay [5] and in assay [6] was > 100 µM (inactive) each time. Also, the GI50 in [7] was > 100 µM (inactive); in assay [8] it was greater than 100 µM; in assay [19] it was > 100 µM (inactive); in [20] it was > 100 µM (inactive); in [9], > 100 µM (inactive); in assay [10], > 100 µM (inactive). Further, the GI50 in [11], in assay [12], in assay [13], in assay [14], in assay [15] and in [16] was > 100 µM (inactive) in each case. Besides, in [18], the GI50 was > 100 µM (inactive).
For the molecule `CCN1C[C@]2(COC)[C@H](O)C[C@H](OC)[C@]34C1[C@H]([C@H](OC)[C@H]23)[C@]1(OC(C)=O)[C@H]2[C@@H](OC(=O)c3ccccc3)[C@](O)(C[C@H]24)[C@@H](OC)[C@@H]1O`, the GI50 in [1], in assay [2], in [3], in assay [4], in [5] and in [6] was > 100 µM (inactive) throughout. For the same molecule, the GI50 in assay [7] is > 100 µM (inactive); in assay [8] it was greater than 100 µM; in assay [19], > 100 µM (inactive); in assay [20] it was > 100 µM (inactive); in assay [9], > 100 µM (inactive); in [10] it was > 100 µM (inactive). Moreover, the GI50 was > 100 µM (inactive) in assay [11]; > 100 µM (inactive) in assay [13]; > 100 µM (inactive) in [14]; > 100 µM (inactive) in assay [15]; > 100 µM (inactive) in assay [16]; 31.1 µM (inactive) in assay [17]. Besides, the GI50 in [18] was > 100 µM (inactive).
In the case of `COCn1c(C)c(C)c2c(=O)oc(=O)[nH]c21`, the GI50 is > 100 µM (inactive) in assay [1]; > 100 µM (inactive) in [2]; > 100 µM (inactive) in assay [3]; > 100 µM (inactive) in assay [4]; 8.24 µM (inactive) in assay [5]; > 100 µM (inactive) in assay [6]. In addition, the GI50 in assay [7] was > 100 µM (inactive); in assay [8], greater than 100 µM; in assay [19], > 100 µM (inactive); in assay [20] it was > 100 µM (inactive); in assay [9], > 100 µM (inactive); in assay [10], > 100 µM (inactive). Also, the GI50 in assay [11], in assay [13], in [14], in [15], in assay [16] and in [17] was > 100 µM (inactive) each time. For the same molecule, the GI50 in assay [18] was > 100 µM (inactive).
Take `Nc1ccnc2c1ncn2[C@H]1C[C@H](O)[C@@H](CO)O1`: the GI50 in assay [1], in [2], in assay [3], in [4], in [5] and in [6] was > 100 µM (inactive) in each case. Moreover, the GI50 in assay [7] was > 100 µM (inactive); in assay [8] it was greater than 100 µM; in assay [19], > 100 µM (inactive); in assay [20], > 100 µM (inactive); in assay [9], > 100 µM (inactive); in [10], > 100 µM (inactive). Also, the GI50 in assay [11], in assay [12], in assay [13], in assay [14], in assay [16] and in assay [17] was > 100 µM (inactive) in each case. Besides, the GI50 in [18] was > 100 µM (inactive).
As to `O=C(O)c1cc(CCc2ccc(O)c(O)c2)ccc1O`, the GI50 in assay [1], in assay [2], in assay [3], in [4], in assay [5] and in assay [7] was > 100 µM (inactive) throughout. Also, the GI50 is greater than 100 µM in assay [8]; > 100 µM (inactive) in assay [19]; > 100 µM (inactive) in assay [20]; > 100 µM (inactive) in [9]; > 100 µM (inactive) in assay [10]; > 100 µM (inactive) in assay [11]. For the same molecule, the GI50 in assay [12], in [13], in [14], in assay [15], in assay [16] and in assay [17] was > 100 µM (inactive) in each case. In assay [18], the GI50 was > 100 µM (inactive).
Consider `C[N+](C)([O-])Cc1cc(-c2ccccc2)ccc1O`, for which the GI50 in [1], in assay [2], in [3], in assay [4], in assay [5] and in [6] was > 100 µM (inactive) in each case. Besides, the GI50 in assay [7] was > 100 µM (inactive); in assay [8], greater than 100 µM; in [19] it was > 100 µM (inactive); in assay [20], > 100 µM (inactive); in assay [9] it was > 100 µM (inactive); in assay [10], > 100 µM (inactive). Moreover, the GI50 in [11], in assay [12], in [13], in assay [14], in assay [16] and in assay [17] was > 100 µM (inactive) throughout. In addition, the GI50 in assay [18] is > 100 µM (inactive).
As to `CC(=O)N1N=C(c2ccc3ccccc3c2O)CC1c1ccc(Cl)cc1Cl` (stereo not given), the GI50 in assay [1] was 18.9 µM (inactive); in [2], 27.9 µM (inactive); in assay [3], 29.6 µM (inactive); in assay [4], > 100 µM (inactive); in assay [5], 22.6 µM (inactive); in assay [7], > 100 µM (inactive). Moreover, the GI50 in assay [8] was 56.9 µM; in [19] it was 46.2 µM (inactive); in assay [20] it was 27.2 µM (inactive); in [9], 25.4 µM (inactive); in [10] it was 44.6 µM (inactive); in [11] it was > 100 µM (inactive). The GI50 is 15.6 µM (inactive) in assay [12]; 26.9 µM (inactive) in [13]; > 100 µM (inactive) in assay [14]; > 100 µM (inactive) in assay [15]; > 100 µM (inactive) in [17]; 44.2 µM (inactive) in assay [18].
